# Test results taken from PubChem BioAssay AID208 (DTP/NCI, 2004).
# “And” between values parts separate entries of the source, which are not always exact repeats. Identical values can stand only once. Records with an inconclusive call do not appear. *1 amine or outer side, *2 acyl side, *3 side chain or, on linkers, in order; H or OH if unused. Where a SMILES comes first, the peptide text is derived from it. Bridges are numbered along the chain shown (N, C = ends). Roman numbers before positions name the chains, in order. [ ]: non-standard residue; d: D form. Actinocin(9to1) = Cc1c2oc3c(C)ccc(C(=O)[*:1])c3nc-2c(C(=O)[*:2])c(N)c1=O; aThr = C[C@H](O)[C@H](N)C(=O)O; NMeV = CN[C@H](C(=O)O)C(C)C; Sar = CNCC(=O)O
# Test system: HT29 intrarenal xenograft, nude mice, tumor weight change
# Assay: NCI In Vivo Anticancer Drug Screen. Data for tumor model HT29;CX-1 Human Adenocarcinoma (MER+) (intrarenal inoculation) in NU/NU BALB/C (nude) mice
# Settings: endpoint: mean tumor weight change, higher = larger tumour
# Method: The antitumor activity of compounds was measured in mice bearing transplantable tumors. Survival or tumor size were measured and the results are expressed as the measurement made in the treated group (T) divided by the measurement made in the vehicle treated control group (C). The tumor model used in this assay is HT29;CX-1 Human Adenocarcinoma (MER+) (intrarenal inoculation) in NU/NU BALB/C (nude) mice
# [1] = dose: 150.0 mg/kg/injection, schedule: Q04DX004 (sc), vehicle: saline with Tween-80
# [2] = dose: 300.0 mg/kg/injection, schedule: Q04DX004 (sc), vehicle: saline with Tween-80
# [3] = dose: 600.0 mg/kg/injection, schedule: Q04DX004 (sc), vehicle: saline with Tween-80
# [4] = dose: 75.0 mg/kg/injection, schedule: Q04DX004 (sc), vehicle: saline
# [5] = dose: 12.5 mg/kg/injection, schedule: Q04DX004 (sc), vehicle: saline with Tween-80
# [6] = dose: 50.0 mg/kg/injection, schedule: Q01DX010 (sc), vehicle: saline
# [7] = dose: 100.0 mg/kg/injection, schedule: Q01DX010 (sc), vehicle: saline
smiles,measurement,setting,value
O=C1c2ccccc2C(=O)c2c1cn1c2Cc2ccccc2C1,T/C,"dose: 37.5 mg/kg/injection, schedule: Q04DX004 (ip), vehicle: Klucel (hydroxypropylcellulose) (HPC)",908 % of control
same,T/C,"dose: 75.0 mg/kg/injection, schedule: Q04DX004 (ip), vehicle: Klucel (hydroxypropylcellulose) (HPC)",537 % of control
same,T/C,"dose: 150.0 mg/kg/injection, schedule: Q04DX004 (ip), vehicle: Klucel (hydroxypropylcellulose) (HPC)",753 % of control
same,T/C,"dose: 300.0 mg/kg/injection, schedule: Q04DX004 (ip), vehicle: Klucel (hydroxypropylcellulose) (HPC)",188 % of control
same,T/C,"dose: 600.0 mg/kg/injection, schedule: Q04DX004 (ip), vehicle: Klucel (hydroxypropylcellulose) (HPC)",450 % of control
CSc1ncnc2c1ncn2C1OC(CO)C(O)C1O (stereo not given),T/C,"dose: 37.5 mg/kg/injection, schedule: Q04DX004 (sc), vehicle: saline + alcohol",101 % of control
same,T/C,"dose: 75.0 mg/kg/injection, schedule: Q04DX004 (sc), vehicle: saline + alcohol",30 % of control
same,T/C,"dose: 150.0 mg/kg/injection, schedule: Q04DX004 (sc), vehicle: saline + alcohol",12 % of control
O=[N+]([O-])c1ccc(N2CCOCC2)c2c1no[n+]2[O-],T/C,"dose: 75.0 mg/kg/injection, schedule: Q04DX004 (sc), vehicle: saline with Tween-80",88 % of control
same,T/C,[1],116 % of control
same,T/C,[2],156 % of control
same,T/C,[3],83 % of control
Cc1cc(NCCCCCCCCNc2cc(C)nc3cc(N(C)C)ccc23)c2ccc(N(C)C)cc2n1,T/C,"dose: 75.0 mg/kg/injection, schedule: Q04DX004 (sc), vehicle: distilled water + Tween-80 + alcohol",84 % of control
same,T/C,"dose: 150.0 mg/kg/injection, schedule: Q04DX004 (sc), vehicle: distilled water + Tween-80 + alcohol",62 % of control
same,T/C,"dose: 300.0 mg/kg/injection, schedule: Q04DX004 (sc), vehicle: distilled water + Tween-80 + alcohol",85 % of control
same,T/C,"dose: 600.0 mg/kg/injection, schedule: Q04DX004 (sc), vehicle: distilled water + Tween-80 + alcohol",35 % of control
CNc1nc(NC)nc(NC)n1,T/C,"dose: 12.5 mg/kg/injection, schedule: Q01DX010 (sc), vehicle: Klucel (hydroxypropylcellulose) (HPC)",154 % of control
same,T/C,"dose: 50.0 mg/kg/injection, schedule: Q01DX010 (sc), vehicle: Klucel (hydroxypropylcellulose) (HPC)",73 % of control
[Cl][Hg][Cl],T/C,"dose: 2.5 mg/kg/injection, schedule: Q04DX004 (ip), vehicle: saline",155 % of control
same,T/C,"dose: 5.0 mg/kg/injection, schedule: Q04DX004 (ip), vehicle: saline",68 % of control
O=P(O)(NCCCl)NCCCl,T/C,"dose: 37.5 mg/kg/injection, schedule: Q04DX004 (sc), vehicle: saline",54 % of control and 61 % of control
same,T/C,[4],71 % of control and 80 % of control
"Cc1c2oc3c(C)ccc(C(=O)N[C@@H]4C(=O)N[C@H](C(C)C)C(=O)N5CCC[C@H]5C(=O)N(C)CC(=O)N(C)[C@@H](C(C)C)C(=O)O[C@H]4C)c3nc-2c(C(=O)N[C@@H]2C(=O)N[C@H](C(C)C)C(=O)N3CCC[C@H]3C(=O)N(C)CC(=O)N(C)[C@@H](C(C)C)C(=O)O[C@H]2C)c(N)c1=O (I: [aThr][dV]P[Sar][NMeV] / II: [aThr][dV]P[Sar][NMeV]; ester I:1-I:C, II:1-II:C; linker I:N-II:N via Actinocin(9to1))",T/C,"dose: 0.03 mg/kg/injection, schedule: Q04DX004 (ip), vehicle: saline",77 % of control
same,T/C,"dose: 0.05 mg/kg/injection, schedule: Q04DX004 (ip), vehicle: saline",77 % of control
same,T/C,"dose: 0.08 mg/kg/injection, schedule: Q04DX004 (ip), vehicle: saline",97 % of control
O.O.[NH-]C1CCCCC1[NH-].[Pt+2] (stereo not given),T/C,"dose: 5.0 mg/kg/injection, schedule: Q01DX010 (sc), vehicle: dextrose",98 % of control
same,T/C,"dose: 10.0 mg/kg/injection, schedule: Q01DX010 (sc), vehicle: dextrose",75 % of control
same,T/C,"dose: 20.0 mg/kg/injection, schedule: Q01DX010 (sc), vehicle: dextrose",34 % of control
same,T/C,"dose: 40.0 mg/kg/injection, schedule: Q01DX010 (sc), vehicle: dextrose",19 % of control
C=C(C)C(=O)O[C@H]1CC2=C[C@@H](C[C@@]3(C)O[C@@H]3[C@H]3OC(=O)C(=C)[C@@H]31)OC2=O,T/C,"dose: 75.0 mg/kg/injection, schedule: Q04DX004 (sc), vehicle: Klucel (hydroxypropylcellulose) (HPC)",75 % of control
same,T/C,"dose: 150.0 mg/kg/injection, schedule: Q04DX004 (sc), vehicle: Klucel (hydroxypropylcellulose) (HPC)",121 % of control
O=C(CCCCCCC(=O)ON1C(=O)CCC1=O)ON1C(=O)CCC1=O,T/C,[1],25 % of control
same,T/C,[2],50 % of control
same,T/C,[3],93 % of control
same,T/C,"dose: 1200.0 mg/kg/injection, schedule: Q04DX004 (sc), vehicle: saline with Tween-80",77 % of control
COC(=O)Nc1nc2ccc(SC)cc2c(=O)[nH]1,T/C,"dose: 300.0 mg/kg/injection, schedule: Q04DX004 (sc), vehicle: Klucel (hydroxypropylcellulose) (HPC)",122 % of control
same,T/C,"dose: 600.0 mg/kg/injection, schedule: Q04DX004 (sc), vehicle: Klucel (hydroxypropylcellulose) (HPC)",95 % of control
same,T/C,"dose: 1200.0 mg/kg/injection, schedule: Q04DX004 (sc), vehicle: Klucel (hydroxypropylcellulose) (HPC)",48 % of control
same,T/C,"dose: 2400.0 mg/kg/injection, schedule: Q04DX004 (sc), vehicle: Klucel (hydroxypropylcellulose) (HPC)",37 % of control
C[CH2][Sn]([CH2]C)([O]S(C)(=O)=O)[O]S(C)(=O)=O,T/C,"dose: 6.25 mg/kg/injection, schedule: Q04DX004 (sc), vehicle: saline with Tween-80",169 % of control
same,T/C,[5],107 % of control
CN(C)N=Nc1ccc(S(N)(=O)=O)cc1,T/C,"dose: 100.0 mg/kg/injection, schedule: Q01DX010 (sc), vehicle: Klucel (hydroxypropylcellulose) (HPC)",81 % of control
same,T/C,"dose: 200.0 mg/kg/injection, schedule: Q01DX010 (sc), vehicle: Klucel (hydroxypropylcellulose) (HPC)",104 % of control
CCOC(=O)C(N)CSC(=O)NC (stereo not given),T/C,"dose: 150.0 mg/kg/injection, schedule: Q04DX004 (ip), vehicle: saline",108 % of control
same,T/C,"dose: 150.0 mg/kg/injection, schedule: Q04DX004 (sc), vehicle: saline",58 % of control
same,T/C,"dose: 300.0 mg/kg/injection, schedule: Q04DX004 (ip), vehicle: saline",103 % of control
same,T/C,"dose: 300.0 mg/kg/injection, schedule: Q04DX004 (sc), vehicle: saline",75 % of control
same,T/C,"dose: 600.0 mg/kg/injection, schedule: Q04DX004 (ip), vehicle: saline",111 % of control
same,T/C,"dose: 600.0 mg/kg/injection, schedule: Q04DX004 (sc), vehicle: saline",59 % of control
N=C1CCCS1,T/C,"dose: 12.5 mg/kg/injection, schedule: Q04DX004 (sc), vehicle: saline",117 % of control
same,T/C,"dose: 25.0 mg/kg/injection, schedule: Q04DX004 (sc), vehicle: saline",151 % of control
same,T/C,"dose: 50.0 mg/kg/injection, schedule: Q04DX004 (sc), vehicle: saline",96 % of control
same,T/C,"dose: 100.0 mg/kg/injection, schedule: Q04DX004 (sc), vehicle: saline",62 % of control
C=CS(=O)(=O)c1ccccc1,T/C,[6],49 % of control
same,T/C,[7],82 % of control
NC(=S)N/N=C/c1ccc(O)cn1,T/C,"dose: 200.0 mg/kg/injection, schedule: Q04DX004 (sc), vehicle: saline with Tween-80",75 % of control
C[n+]1ccc2cc(N)c3c4ccccc4sc3c2c1,T/C,[5],60 % of control
same,T/C,"dose: 25.0 mg/kg/injection, schedule: Q04DX004 (sc), vehicle: saline with Tween-80",43 % of control
Nc1ccc(Cn2ccc3c4c(N)nc(N)nc4ccc32)cc1,T/C,"dose: 18.75 mg/kg/injection, schedule: Q04DX004 (sc), vehicle: saline with Tween-80",60 % of control
same,T/C,"dose: 37.5 mg/kg/injection, schedule: Q04DX004 (sc), vehicle: saline with Tween-80",58 % of control
CC(O)CCC(=O)c1ccoc1 (stereo not given),T/C,"dose: 3.75 mg/kg/injection, schedule: Q01DX010 (ip), vehicle: saline",97 % of control
same,T/C,"dose: 7.5 mg/kg/injection, schedule: Q01DX010 (ip), vehicle: saline",88 % of control
same,T/C,"dose: 15.0 mg/kg/injection, schedule: Q01DX010 (ip), vehicle: saline",108 % of control
same,T/C,"dose: 30.0 mg/kg/injection, schedule: Q01DX010 (ip), vehicle: saline",89 % of control
c1ccc2c(c1)nnn1c3cnccc3nc21,T/C,"dose: 50.0 mg/kg/injection, schedule: Q01DX010 (sc), vehicle: saline with Tween-80",246 % of control
same,T/C,"dose: 100.0 mg/kg/injection, schedule: Q01DX010 (sc), vehicle: saline with Tween-80",65 % of control
COc1cc(C)c2c(c1C=O)Oc1c(c(C)c(O)c3c1C(O)OC3=O)OC2=O (stereo not given),T/C,[6],42 % of control
same,T/C,[7],81 % of control
same,T/C,"dose: 400.0 mg/kg/injection, schedule: Q01DX010 (sc), vehicle: saline",38 % of control
O=P1(NCCCl)OCCCN1CCCl (stereo not given),T/C,[4],68 % of control
